25 compounds from US9567342B2, “Certain protein kinase inhibitors” (SHANGHAI FOCHON PHARMACEUTICAL CO., LTD., priority 2012, dated 2017) can be followed below.

For this experiment, the system named is SU-DHL-1 cells. As to the kind of experiment: Inhibition activity of cell proliferation (CCK-8 assay). The class given is cell-based. The settings on record: Homo sapiens, 72 h exposure. The method, then: SU-DHL-1 cells were seeded in 96-well tissue culture plates. On the next day, cells were exposed to various concentrations of compounds and further cultured for 72 h. Cell proliferation was then determined using Cell Counting Kit-8 [(CCK-8), Dojindo]assay. Briefly, add 10 μL of the CCK-8 solution to each well of the plate. Incubate the plate for 1-4 hours in the incubator. Measure the absorbance at 450 nm using a multi-well spectrophotometer (SpectraMAX 190, Molecular Devices). The inhibition rate (%) was calculated using the following equation: [1−(A450 Compound/A450 Control)]×100%. IC50 values were calculated according to inhibition curve by four-parameter fit.
Background: Formazan colour is commonly taken as a measure of viable cells.

Consider `Cc1cc(Nc2ncc(Cl)c(Nc3ccccc3S(=O)(=O)C(C)C)n2)c2c(c1C1CCN(C[C@H](C)O)CC1)C[C@@H](C)O2` [Example 24, (S)-1-(4-((R)-7-((5-chloro-4-((2-(isopropylsulfonyl)phenyl)amino)pyrimidin-2-yl)amino)-2,5-dimethyl-2,3-dihydrobenzofuran-4-yl)piperidin-1-yl)propan-2-ol], for which the half-inhibitory concentration (IC50) was found to be 8.3 nM.

`Cc1cc(Nc2ncc(Cl)c(Nc3ccccc3S(=O)(=O)C(C)C)n2)c2c(c1C1CCN(CC(N)=O)CC1)C[C@H](C)O2` [Example 25, (S)-2-(4-(7-((5-chloro-4-((2-(isopropylsulfonyl)phenyl)amino)pyrimidin-2-yl)amino)-2,5-dimethyl-2,3-dihydrobenzofuran-4-yl)piperidin-1-yl)acetamide] showed an IC50 of 36.3 nM.

For the compound `Cc1cc(Nc2ncc(Cl)c(Nc3ccccc3S(=O)(=O)C(C)C)n2)c2c(c1C1CCN(CC(N)=O)CC1)C[C@@H](C)O2` [Example 26, (R)-2-(4-(7-((5-chloro-4-((2-(isopropylsulfonyl)phenyl)amino)pyrimidin-2-yl)amino)-2,5-dimethyl-2,3-dihydrobenzofuran-4-yl)piperidin-1-yl)acetamide], it took 13.7 nM to reach half-maximal inhibition (IC50).

As to `Cc1cc(Nc2ncc(Cl)c(Nc3ccccc3S(=O)(=O)C(C)C)n2)c2c(c1C1CCN(CC(=O)N(C)C)CC1)C[C@H](C)O2` [Example 27, (S)-2-(4-(7-((5-chloro-4-((2-(isopropylsulfonyl)phenyl)amino)pyrimidin-2-yl)amino)-2,5-dimethyl-2,3-dihydrobenzofuran-4-yl)piperidin-1-yl)-N,N-dimethylacetamide], the IC50 was determined as 37.2 nM.

Compound `Cc1cc(Nc2ncc(Cl)c(Nc3ccccc3S(=O)(=O)C(C)C)n2)c2c(c1C1CCN(CC(=O)N(C)C)CC1)C[C@@H](C)O2` [Example 28, (R)-2-(4-(7-((5-chloro-4-((2-(isopropylsulfonyl)phenyl)amino)pyrimidin-2-yl)amino)-2,5-dimethyl-2,3-dihydrobenzofuran-4-yl)piperidin-1-yl)-N,N-dimethylacetamide] showed an IC50 of 46.6 nM.

`Cc1cc(Nc2ncc(Cl)c(Nc3ccccc3S(=O)(=O)C(C)C)n2)c2c(c1C1CCN(CCS(C)(=O)=O)CC1)C[C@H](C)O2` [Example 29] registered an IC50 of 64.7 nM.

On to `Cc1cc(Nc2ncc(Cl)c(Nc3ccccc3S(=O)(=O)C(C)C)n2)c2c(c1C1CCN(CCS(C)(=O)=O)CC1)C[C@@H](C)O2` [Example 30], for which the IC50 was determined as 17.4 nM.

Compound `COCCN1CCC(c2c(C)cc(Nc3ncc(Cl)c(Nc4ccccc4S(=O)(=O)C(C)C)n3)c3c2C[C@H](C)O3)CC1` [Example 31, (S)-5-chloro-N-4-(2-(isopropylsulfonyl)phenyl)-N-2-(4-(1-(2-methoxyethyl)piperidin-4-yl)-2,5-dimethyl-2,3-dihydrobenzofuran-7-yl)pyrimidine-2,4-diamine] registered an IC50 of 74.5 nM.

For `COCCN1CCC(c2c(C)cc(Nc3ncc(Cl)c(Nc4ccccc4S(=O)(=O)C(C)C)n3)c3c2C[C@@H](C)O3)CC1` [Example 32, (R)-5-chloro-N-4-(2-(isopropylsulfonyl)phenyl)-N-2-(4-(1-(2-methoxyethyl)piperidin-4-yl)-2,5-dimethyl-2,3-dihydrobenzofuran-7-yl)pyrimidine-2,4-diamine], it took 19.3 nM to reach half-maximal inhibition (IC50).

Turning to `Cc1cc(Nc2ncc(Cl)c(Nc3ccccc3S(=O)(=O)C(C)C)n2)c2c(c1C1CCN(CCO)CC1)C[C@@H](C)O2` [Example 33, (R)-2-(4-(7-((5-chloro-4-((2-(isopropylsulfonyl)phenyl)amino)pyrimidin-2-yl)amino)-2,5-dimethyl-2,3-dihydrobenzofuran-4-yl)piperidin-1-yl)ethanol], half-maximal inhibition (IC50) required 11.8 nM.

In turn, `Cc1cc(Nc2ncc(Cl)c(Nc3ccccc3S(=O)(=O)C(C)C)n2)c2c(c1C1CCN(CCO)CC1)C[C@H](C)O2` [Example 34, (S)-2-(4-(7-((5-chloro-4-((2-(isopropylsulfonyl)phenyl)amino)pyrimidin-2-yl)amino)-2,5-dimethyl-2,3-dihydrobenzofuran-4-yl)piperidin-1-yl)ethanol] returned a half-maximal inhibitory concentration (IC50) of 12.3 nM.

As to `Cc1cc(Nc2ncc(Cl)c(Nc3ccccc3S(=O)(=O)C(C)C)n2)c2c(c1C1CCN(C[C@@H](C)O)CC1)C[C@H](C)O2` [Example 35, (R)-1-(4-((S)-7-((5-chloro-4-((2-(isopropylsulfonyl)phenyl)amino)pyrimidin-2-yl)amino)-2,5-dimethyl-2,3-dihydrobenzofuran-4-yl)piperidin-1-yl)propan-2-ol], it took 36.9 nM to reach half-maximal inhibition (IC50).

`Cc1cc(Nc2ncc(Cl)c(Nc3ccccc3S(=O)(=O)C(C)C)n2)c2c(c1C1CCN(C[C@H](C)O)CC1)C[C@H](C)O2` [Example 36, (S)-1-(4-((S)-7-((5-chloro-4-((2-(isopropylsulfonyl)phenyl)amino)pyrimidin-2-yl)amino)-2,5-dimethyl-2,3-dihydrobenzofuran-4-yl)piperidin-1-yl)propan-2-ol]: the concentration for half-maximal inhibition (IC50) was determined as 26.2 nM.

`Cc1cc(Nc2ncc(Cl)c(Nc3ccccc3S(=O)(=O)C(C)C)n2)c2c(c1C1CCN(C(=O)CO)CC1)C[C@@H](C)O2` [Example 37, (R)-1-(4-(7-((5-chloro-4-((2-(isopropylsulfonyl)phenyl)amino)pyrimidin-2-yl)amino)-2,5-dimethyl-2,3-dihydrobenzofuran-4-yl)piperidin-1-yl)-2-hydroxyethanone] yielded an IC50 of 12.5 nM.

`Cc1cc(Nc2ncc(Cl)c(Nc3ccccc3S(=O)(=O)C(C)C)n2)c2c(c1C1CCN(C(=O)[C@H](C)O)CC1)C[C@@H](C)O2` [Example 38, (S)-1-(4-((R)-7-((5-chloro-4-((2-(isopropylsulfonyl)phenyl)amino)pyrimidin-2-yl)amino)-2,5-dimethyl-2,3-dihydrobenzofuran-4-yl)piperidin-1-yl)-2-hydroxypropan-1-one]: 13.6 nM corresponded to half-maximal inhibition (IC50).

Take `Cc1cc(Nc2ncc(Cl)c(Nc3ccccc3S(=O)(=O)C(C)C)n2)c2c(c1C1CCN(C(=O)[C@@H](C)O)CC1)C[C@@H](C)O2` [Example 39, (R)-1-(4-((R)-7-((5-chloro-4-((2-(isopropylsulfonyl)phenyl)amino)pyrimidin-2-yl)amino)-2,5-dimethyl-2,3-dihydrobenzofuran-4-yl)piperidin-1-yl)-2-hydroxypropan-1-one]: 10.3 nM corresponded to half-maximal inhibition (IC50).

`COC(=O)N1CCC(c2c(C)cc(Nc3ncc(Cl)c(Nc4ccccc4S(=O)(=O)C(C)C)n3)c3c2C[C@H](C)O3)CC1` [Example 40, (S)-methyl 4-(7-((5-chloro-4-((2-(isopropylsulfonyl)phenyl)amino)pyrimidin-2-yl)amino)-2,5-dimethyl-2,3-dihydrobenzofuran-4-yl)piperidine-1-carboxylate] displayed an IC50 of 120 nM.

The compound `CCOC(=O)CN1CCC(c2c(C)cc(Nc3ncc(Cl)c(Nc4ccccc4S(=O)(=O)C(C)C)n3)c3c2C[C@H](C)O3)CC1` [Example 41, (S)-ethyl 2-(4-(7-((5-chloro-4-((2-(isopropylsulfonyl)phenyl)amino)pyrimidin-2-yl)amino)-2,5-dimethyl-2,3-dihydrobenzofuran-4-yl)piperidin-1-yl)acetate] yielded an IC50 of 43.2 nM.

With `Cc1cc(Nc2ncc(Cl)c(Nc3ccccc3S(=O)(=O)C(C)C)n2)c2c(c1C1CCN(C(=O)CN)CC1)C[C@H](C)O2` [Example 42, (S)-2-amino-1-(4-(7-((5-chloro-4-((2-(isopropylsulfonyl)phenyl)amino)pyrimidin-2-yl)amino)-2,5-dimethyl-2,3-dihydrobenzofuran-4-yl)piperidin-1-yl)ethanone], the IC50 worked out at 54.6 nM.

Consider `Cc1cc(Nc2ncc(Cl)c(Nc3ccccc3S(=O)(=O)C(C)C)n2)c2c(c1C1CCN(C(N)=O)CC1)C[C@H](C)O2` [Example 43, (S)-4-(7-((5-chloro-4-((2-(isopropylsulfonyl)phenyl)amino)pyrimidin-2-yl)amino)-2,5-dimethyl-2,3-dihydrobenzofuran-4-yl)piperidine-1-carboxamide], for which half-maximal inhibition (IC50) required 107 nM.

Turning to `CNCC(=O)N1CCC(c2c(C)cc(Nc3ncc(Cl)c(Nc4ccccc4S(=O)(=O)C(C)C)n3)c3c2C[C@H](C)O3)CC1` [Example 44, (S)-1-(4-(7-((5-chloro-4-((2-(isopropylsulfonyl)phenyl)amino)pyrimidin-2-yl)amino)-2,5-dimethyl-2,3-dihydrobenzofuran-4-yl)piperidin-1-yl)-2-(methylamino)ethanone], the 50% inhibitory concentration (IC50) was 264 nM.

Regarding `Cc1cc(Nc2ncc(Cl)c(Nc3ccccc3S(=O)(=O)C(C)C)n2)c2c(c1C1CCN(C(=O)CN(C)C)CC1)C[C@H](C)O2` [Example 45, (S)-1-(4-(7-((5-chloro-4-((2-(isopropylsulfonyl)phenyl)amino)pyrimidin-2-yl)amino)-2,5-dimethyl-2,3-dihydrobenzofuran-4-yl)piperidin-1-yl)-2-(dimethylamino)ethanone], the IC50 was found to be 39.5 nM.

In turn, `Cc1cc(Nc2ncc(Cl)c(Nc3ccccc3S(=O)(=O)C(C)C)n2)c2c(c1C(=O)N1CCNCC1)C[C@H](C)O2` [Example 46, (S)-(7-((5-chloro-4-((2-(isopropylsulfonyl)phenyl)amino)pyrimidin-2-yl)amino)-2,5-dimethyl-2,3-dihydrobenzofuran-4-yl)(piperazin-1-yl)methanone] registered an IC50 of 114 nM.

`Cc1cc(Nc2ncc(Cl)c(Nc3ccccc3S(=O)(=O)C(C)C)n2)c2c(c1C(=O)N1CCN(C)CC1)C[C@H](C)O2` [Example 47, (S)-(7-((5-chloro-4-((2-(isopropylsulfonyl)phenyl)amino)pyrimidin-2-yl)amino)-2,5-dimethyl-2,3-dihydrobenzofuran-4-yl)(4-methylpiperazin-1-yl)methanone] showed an IC50 of 117 nM.

For `Cc1cc(Nc2ncc(Cl)c(Nc3ccccc3S(=O)(=O)C(C)C)n2)c2c(c1C(=O)N1CCOCC1)C[C@H](C)O2` [Example 48, (S)-(7-((5-chloro-4-((2-(isopropylsulfonyl)phenyl)amino)pyrimidin-2-yl)amino)-2,5-dimethyl-2,3-dihydrobenzofuran-4-yl)(morpholino)methanone], inhibition was half-maximal at 219 nM (IC50).

As usually defined, the IC50 is the concentration that gives 50% inhibition.
